According to ChEMBL document CHEMBL3991601, “The target landscape of clinical kinase drugs” (Science, 2017):
The source made the active and inactive calls.

Experiments:
[1] = target: T1, Mitogen-activated protein kinase kinase kinase 6 (Homo sapiens, UniProt O95382)
T1 sequence (O95382 whole entry): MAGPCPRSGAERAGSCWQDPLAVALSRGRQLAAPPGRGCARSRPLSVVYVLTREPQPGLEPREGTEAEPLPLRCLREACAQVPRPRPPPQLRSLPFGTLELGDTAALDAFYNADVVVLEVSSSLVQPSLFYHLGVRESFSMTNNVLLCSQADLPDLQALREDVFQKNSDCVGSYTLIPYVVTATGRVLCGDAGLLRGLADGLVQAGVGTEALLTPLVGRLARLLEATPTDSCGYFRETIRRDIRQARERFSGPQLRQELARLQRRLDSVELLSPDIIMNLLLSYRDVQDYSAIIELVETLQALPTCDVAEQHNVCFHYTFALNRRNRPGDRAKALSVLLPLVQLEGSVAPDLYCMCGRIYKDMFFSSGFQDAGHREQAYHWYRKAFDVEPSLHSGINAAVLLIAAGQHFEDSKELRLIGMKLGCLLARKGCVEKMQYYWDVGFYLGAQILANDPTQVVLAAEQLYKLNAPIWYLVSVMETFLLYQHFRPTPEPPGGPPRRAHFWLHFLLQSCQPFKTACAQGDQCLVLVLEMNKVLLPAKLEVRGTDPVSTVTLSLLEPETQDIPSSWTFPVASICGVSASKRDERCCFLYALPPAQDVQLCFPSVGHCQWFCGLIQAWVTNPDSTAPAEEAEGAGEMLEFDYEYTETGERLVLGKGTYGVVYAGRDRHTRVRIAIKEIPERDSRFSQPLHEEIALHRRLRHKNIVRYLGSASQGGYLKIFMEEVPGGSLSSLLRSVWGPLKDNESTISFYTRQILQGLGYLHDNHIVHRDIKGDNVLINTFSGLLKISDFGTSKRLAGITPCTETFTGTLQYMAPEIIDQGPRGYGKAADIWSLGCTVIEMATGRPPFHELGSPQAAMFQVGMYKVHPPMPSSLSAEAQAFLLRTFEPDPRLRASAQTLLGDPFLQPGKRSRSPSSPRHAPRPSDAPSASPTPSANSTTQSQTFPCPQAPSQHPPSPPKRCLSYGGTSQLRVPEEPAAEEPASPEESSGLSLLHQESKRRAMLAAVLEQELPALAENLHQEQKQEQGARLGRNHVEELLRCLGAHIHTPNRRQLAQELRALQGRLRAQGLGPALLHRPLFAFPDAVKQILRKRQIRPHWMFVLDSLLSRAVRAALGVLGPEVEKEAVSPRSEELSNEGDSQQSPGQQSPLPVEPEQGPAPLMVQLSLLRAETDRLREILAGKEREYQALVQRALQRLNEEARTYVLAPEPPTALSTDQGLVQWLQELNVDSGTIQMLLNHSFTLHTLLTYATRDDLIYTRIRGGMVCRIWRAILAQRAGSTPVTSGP

[2] = target: GTP-binding protein 4 (Homo sapiens, UniProt Q9BZE4)
[3] = target: T2, Very long-chain specific acyl-CoA dehydrogenase, mitochondrial (Homo sapiens, UniProt P49748)
T2 sequence (P49748 whole entry): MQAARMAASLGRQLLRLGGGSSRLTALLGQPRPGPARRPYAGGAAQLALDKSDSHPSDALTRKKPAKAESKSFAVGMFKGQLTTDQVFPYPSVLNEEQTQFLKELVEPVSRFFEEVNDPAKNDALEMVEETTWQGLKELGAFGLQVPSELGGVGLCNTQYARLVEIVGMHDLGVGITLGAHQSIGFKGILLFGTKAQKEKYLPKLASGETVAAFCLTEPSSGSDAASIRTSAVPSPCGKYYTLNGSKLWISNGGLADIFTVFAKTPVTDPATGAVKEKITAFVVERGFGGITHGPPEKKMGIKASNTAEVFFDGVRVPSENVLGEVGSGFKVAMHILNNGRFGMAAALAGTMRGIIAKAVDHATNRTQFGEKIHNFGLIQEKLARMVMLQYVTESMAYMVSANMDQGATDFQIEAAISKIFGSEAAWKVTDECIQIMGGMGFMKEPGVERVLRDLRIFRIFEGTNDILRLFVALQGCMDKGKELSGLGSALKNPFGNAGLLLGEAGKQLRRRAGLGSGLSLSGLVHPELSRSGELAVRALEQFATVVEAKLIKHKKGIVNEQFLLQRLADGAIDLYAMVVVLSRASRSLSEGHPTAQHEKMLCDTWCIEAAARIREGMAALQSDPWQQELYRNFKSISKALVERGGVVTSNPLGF

[4] = target: Phosphatidylethanolamine-binding protein 1 (Homo sapiens, UniProt P30086)
Sequence of Phosphatidylethanolamine-binding protein 1 (P30086 whole entry): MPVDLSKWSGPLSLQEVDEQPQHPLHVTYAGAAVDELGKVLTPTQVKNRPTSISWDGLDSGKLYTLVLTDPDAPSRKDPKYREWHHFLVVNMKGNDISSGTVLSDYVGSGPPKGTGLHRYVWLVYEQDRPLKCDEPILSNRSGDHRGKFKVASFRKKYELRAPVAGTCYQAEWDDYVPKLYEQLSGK

[5] = target: T3, MAP/microtubule affinity-regulating kinase 4 (Homo sapiens, UniProt Q96L34)
T3 sequence (Q96L34 whole entry): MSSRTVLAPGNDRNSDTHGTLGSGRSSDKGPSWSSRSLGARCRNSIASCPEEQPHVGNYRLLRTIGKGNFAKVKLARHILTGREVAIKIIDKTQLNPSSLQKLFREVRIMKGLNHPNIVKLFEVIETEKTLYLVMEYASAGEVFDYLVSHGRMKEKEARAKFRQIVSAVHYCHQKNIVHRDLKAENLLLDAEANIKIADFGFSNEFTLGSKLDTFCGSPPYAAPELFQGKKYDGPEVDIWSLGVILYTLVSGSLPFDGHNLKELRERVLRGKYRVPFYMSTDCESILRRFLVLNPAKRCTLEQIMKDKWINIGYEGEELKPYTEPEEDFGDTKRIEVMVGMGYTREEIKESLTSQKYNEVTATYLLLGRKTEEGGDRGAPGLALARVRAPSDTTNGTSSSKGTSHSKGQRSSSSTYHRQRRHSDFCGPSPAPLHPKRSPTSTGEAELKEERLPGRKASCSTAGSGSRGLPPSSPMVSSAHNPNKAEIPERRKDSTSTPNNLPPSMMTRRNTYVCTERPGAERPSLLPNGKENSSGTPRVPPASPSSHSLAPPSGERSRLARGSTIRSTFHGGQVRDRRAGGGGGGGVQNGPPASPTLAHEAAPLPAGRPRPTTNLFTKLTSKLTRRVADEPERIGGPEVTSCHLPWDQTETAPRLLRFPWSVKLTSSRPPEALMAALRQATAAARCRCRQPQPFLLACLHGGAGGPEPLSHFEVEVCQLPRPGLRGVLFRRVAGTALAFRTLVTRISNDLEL

[6] = target: Myosin-10 (Homo sapiens, UniProt P35580)
Sequence of Myosin-10 (P35580 whole entry): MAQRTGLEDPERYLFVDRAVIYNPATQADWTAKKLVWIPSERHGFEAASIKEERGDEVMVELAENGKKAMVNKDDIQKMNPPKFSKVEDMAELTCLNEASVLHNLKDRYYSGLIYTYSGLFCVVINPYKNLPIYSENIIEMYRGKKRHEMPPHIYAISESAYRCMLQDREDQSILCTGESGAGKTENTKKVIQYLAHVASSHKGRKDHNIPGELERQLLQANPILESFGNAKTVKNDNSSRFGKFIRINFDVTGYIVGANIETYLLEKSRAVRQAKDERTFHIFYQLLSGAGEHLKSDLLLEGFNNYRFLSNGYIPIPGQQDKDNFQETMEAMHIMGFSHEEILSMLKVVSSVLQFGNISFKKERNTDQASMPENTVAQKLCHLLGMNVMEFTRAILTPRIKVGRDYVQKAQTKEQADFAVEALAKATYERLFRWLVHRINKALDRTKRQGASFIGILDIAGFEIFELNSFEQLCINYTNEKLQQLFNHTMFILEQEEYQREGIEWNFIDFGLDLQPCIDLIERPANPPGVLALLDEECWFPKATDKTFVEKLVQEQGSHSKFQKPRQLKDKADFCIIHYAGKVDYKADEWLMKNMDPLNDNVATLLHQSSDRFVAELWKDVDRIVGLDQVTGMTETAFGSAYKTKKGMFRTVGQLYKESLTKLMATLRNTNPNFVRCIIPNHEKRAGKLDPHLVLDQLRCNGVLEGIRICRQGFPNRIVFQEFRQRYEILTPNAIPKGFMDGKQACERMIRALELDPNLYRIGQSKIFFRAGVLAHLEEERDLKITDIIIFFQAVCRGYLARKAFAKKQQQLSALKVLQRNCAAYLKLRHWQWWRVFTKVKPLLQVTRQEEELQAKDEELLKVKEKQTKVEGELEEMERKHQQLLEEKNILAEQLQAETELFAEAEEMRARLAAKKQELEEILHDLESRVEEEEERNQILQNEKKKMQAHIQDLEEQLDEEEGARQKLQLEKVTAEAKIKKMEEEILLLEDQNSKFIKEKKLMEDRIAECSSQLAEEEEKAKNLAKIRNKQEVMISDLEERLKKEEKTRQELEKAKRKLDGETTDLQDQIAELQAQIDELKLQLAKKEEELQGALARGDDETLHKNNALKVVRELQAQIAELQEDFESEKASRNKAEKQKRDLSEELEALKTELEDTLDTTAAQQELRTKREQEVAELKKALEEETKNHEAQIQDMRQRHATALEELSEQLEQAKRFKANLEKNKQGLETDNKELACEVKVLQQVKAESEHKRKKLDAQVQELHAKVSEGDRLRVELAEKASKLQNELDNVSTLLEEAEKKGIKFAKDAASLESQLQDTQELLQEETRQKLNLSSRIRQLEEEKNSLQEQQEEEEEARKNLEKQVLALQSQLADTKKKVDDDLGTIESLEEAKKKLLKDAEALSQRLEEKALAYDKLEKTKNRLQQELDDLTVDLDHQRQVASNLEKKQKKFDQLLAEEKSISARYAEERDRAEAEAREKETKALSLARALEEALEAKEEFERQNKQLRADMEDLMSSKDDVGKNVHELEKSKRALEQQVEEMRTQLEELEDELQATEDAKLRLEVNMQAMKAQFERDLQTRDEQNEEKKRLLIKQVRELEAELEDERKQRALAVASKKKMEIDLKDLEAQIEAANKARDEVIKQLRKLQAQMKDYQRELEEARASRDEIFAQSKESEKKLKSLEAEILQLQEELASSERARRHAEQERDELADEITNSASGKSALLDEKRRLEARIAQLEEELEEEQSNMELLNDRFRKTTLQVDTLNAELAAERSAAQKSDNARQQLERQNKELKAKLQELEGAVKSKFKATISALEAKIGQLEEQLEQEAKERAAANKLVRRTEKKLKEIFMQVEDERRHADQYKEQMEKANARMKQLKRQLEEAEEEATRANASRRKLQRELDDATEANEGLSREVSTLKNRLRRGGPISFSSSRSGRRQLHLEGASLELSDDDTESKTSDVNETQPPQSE
Note: in the data inactive means no Kd found up to 30 µM.

Kd [1] | Kd [2] | Kd [3] | Kd [4] | Kd [5] | Kd [6] | Compound
> 30 µM (inactive) | > 30 µM (inactive) | > 30 µM (inactive) | > 30 µM (inactive) |  |  | C[C@@H](Oc1cc(C(=O)Nc2ccc(C(=O)N3CCN(C)CC3)cc2)nnc1N)c1c(Cl)ccc(F)c1Cl
> 30 µM (inactive) |  | > 30 µM (inactive) |  |  |  | C[C@H]1CNCCCN1S(=O)(=O)c1cccc2cncc(F)c12
> 30 µM (inactive) |  | > 30 µM (inactive) |  | > 30 µM (inactive) |  | CCNC(=O)C#Cc1ccc2c(c1)NC(=O)/C2=C(\Nc1ccc(CN(C)C)cc1)c1ccccc1
> 30 µM (inactive) |  | > 30 µM (inactive) |  | > 30 µM (inactive) |  | Nc1ncnc2c1c(-c1cccc(OCc3ccccc3)c1)cn2[C@H]1C[C@@H](CN2CCC2)C1 [AEW-541]
> 30 µM (inactive) | > 30 µM (inactive) | > 30 µM (inactive) | > 30 µM (inactive) | > 30 µM (inactive) |  | COc1cc(Nc2ncc3c(n2)-c2ccc(Cl)cc2C(c2c(F)cccc2OC)=NC3)ccc1C(=O)O [ALISERTIB]
> 30 µM (inactive) | > 30 µM (inactive) | > 30 µM (inactive) | > 30 µM (inactive) |  |  | Cc1nc(NC(=O)N2CCC[C@H]2C(N)=O)sc1-c1ccnc(C(C)(C)C(F)(F)F)c1 [ALPELISIB]
> 30 µM (inactive) | > 30 µM (inactive) | > 30 µM (inactive) |  | > 30 µM (inactive) |  | C=CC(=O)Nc1cc2c(Nc3ccc(F)c(Cl)c3)ncnc2cc1C#CC(C)(C)N1CCN(C)CC1 [AV-412 FREE BASE]
 | > 30 µM (inactive) | > 30 µM (inactive) | > 30 µM (inactive) |  | > 30 µM (inactive) | CNC(=O)c1ccccc1Sc1ccc2c(/C=C/c3ccccn3)n[nH]c2c1 [AXITINIB]
> 30 µM (inactive) | > 30 µM (inactive) | > 30 µM (inactive) | > 30 µM (inactive) | > 30 µM (inactive) |  | Cn1cnc2c(F)c(Nc3ccc(Br)cc3F)c(C(=O)NOCCO)cc21 [BINIMETINIB]
> 30 µM (inactive) | > 30 µM (inactive) | > 30 µM (inactive) | > 30 µM (inactive) | > 30 µM (inactive) |  | CCn1c(C(=O)N(C2CC2)C2CC2)cc2c3c(ncn3C)c(Nc3cc(C)n(C)n3)nc21 [BMS-911543]
> 30 µM (inactive) | > 30 µM (inactive) | > 30 µM (inactive) | > 30 µM (inactive) | > 30 µM (inactive) |  | Cc1cc(Nc2ncc(Cl)c(Nc3ccccc3S(=O)(=O)C(C)C)n2)c(OC(C)C)cc1C1CCNCC1 [CERITINIB]
> 30 µM (inactive) | > 30 µM (inactive) |  | > 30 µM (inactive) | > 30 µM (inactive) |  | Cc1nc2cc(-n3ncc(C(=O)c4cc5ccccc5[nH]4)c3N)ccc2[nH]1 [FGFR INHIBITOR DEBIO 1347]
> 30 µM (inactive) | > 30 µM (inactive) | > 30 µM (inactive) | > 30 µM (inactive) |  |  | Cc1cccc(-c2nn3c(c2-c2ccnc4ccc(C(N)=O)cc24)CCC3)n1 [GALUNISERTIB]
 | > 30 µM (inactive) | > 30 µM (inactive) | > 30 µM (inactive) |  | > 30 µM (inactive) | C[C@@H](Oc1cc(-n2cnc3ccc(CN4CCN(C)CC4)cc32)sc1C(N)=O)c1ccccc1C(F)(F)F [GSK-461364]
> 30 µM (inactive) |  | > 30 µM (inactive) |  | > 30 µM (inactive) |  | CNC(=O)c1nn(C)c2c1C(C)(C)Cc1cnc(Nc3ccc(N4CCN(C)CC4)cc3)nc1-2 [MILCICLIB]
> 30 µM (inactive) | > 30 µM (inactive) | > 30 µM (inactive) | > 30 µM (inactive) | > 30 µM (inactive) |  | Cn1cc(-c2cnc3ccc4ccc(CS(=O)(=O)NCc5ccccn5)cc4c(=O)c3c2)cn1 [MK-8033]
> 30 µM (inactive) | > 30 µM (inactive) | > 30 µM (inactive) |  |  | > 30 µM (inactive) | Cc1[nH]c(/C=C2\C(=O)Nc3ccccc32)c(C)c1CCC(=O)O [ORANTINIB]
> 30 µM (inactive) | > 30 µM (inactive) | > 30 µM (inactive) | > 30 µM (inactive) | 0.029 µM (active) |  | Cc1nc(Nc2n[nH]c3c2CN(C(=O)N[C@H](CN(C)C)c2ccccc2)C3(C)C)c2sccc2n1 [PF-03758309]
 | > 30 µM (inactive) | > 30 µM (inactive) | > 30 µM (inactive) |  |  | O=C(NOCCO)c1cc(CN2OCCCC2=O)c(F)c(F)c1Nc1ccc(I)cc1F [RO-4987655]
 | > 30 µM (inactive) | > 30 µM (inactive) | > 30 µM (inactive) |  | > 30 µM (inactive) | N#CC[C@H](C1CCCC1)n1cc(-c2ncnc3[nH]ccc23)cn1 [RUXOLITINIB]
> 30 µM (inactive) | > 30 µM (inactive) | > 30 µM (inactive) | > 30 µM (inactive) | > 30 µM (inactive) |  | O=c1[nH]ccc2cc(OC3CCNCC3)ccc12 [SAR-407899 FREE BASE]
> 30 µM (inactive) | > 30 µM (inactive) | > 30 µM (inactive) | > 30 µM (inactive) | > 30 µM (inactive) |  | O=C1NC(=O)[C@@H](c2cn3c4c(cccc24)CCC3)[C@@H]1c1c[nH]c2ccccc12 [TIVANTINIB]
> 30 µM (inactive) | > 30 µM (inactive) | > 30 µM (inactive) | > 30 µM (inactive) | > 30 µM (inactive) |  | CC(C)c1cc(CNc2nc(Nc3cc(C4CC4)[nH]n3)cc(N3CCN(C)CC3)n2)on1 [XL-228]

Compound | Kd [1] | Kd [2] | Kd [3] | Kd [4] | Kd [5] | Kd [6]
CC(=O)c1cnc2ccc(-c3cc(Cl)c(O)c(Cl)c3)nc2c1N[C@H]1CC[C@H](CN(C)C)CC1 | 1.91 µM (active) | > 30 µM (inactive) | > 30 µM (inactive) | > 30 µM (inactive) |  | 
Cn1cc(C2=C(c3cn(C4CCN(Cc5ccccn5)CC4)c4ccccc34)C(=O)NC2=O)c2ccccc21 [ENZASTAURIN] |  | > 30 µM (inactive) | > 30 µM (inactive) | > 30 µM (inactive) |  | > 30 µM (inactive)
